From patent publication US20250228242A1 (priority 2021, published 2025)
Where a name gives a salt, the structure may show the parent alone.

Columns and labels:
Albugo laibachii = Albugo laibachii on A. thaliana, syringe infiltration of compound, visual scoring of disease severity; format: in vivo; settings: in Arabidopsis thaliana, 100 μM in 1% DMSO syringe infiltrated into adult A. thaliana, visually scored at nine dpi, read-out: A. laibachii Inhibitory effect
Protocol: A. thaliana seeds were stratified on moist soil (Einheitserde type A240, Stender, Germany) for seven days at 4° C. in darkness, before transfer into growth chambers with short day conditions (10 h light, 14 h darkness, 23/20° C., 60% humidity). After three weeks, seedlings were singularised and grown for three weeks further. After six weeks, A. thaliana plants were used for experiments and after infection they were transferred into SANYO (Panasonic MLR-352, Japan) growth cabinets (10 h light, 14 h darkness, 22/16° C.). Potato plants were grown from tubers by covering them with soil (Einheitserde type A240, Stender, Germany). The leaves of adult plants (˜4-6 weeks old) were cut off and kept in a moist environment for infection assays.
For regular Albugo sp. infections A. thaliana Ws-0 was sprayed with an Albugo sp. conidiospores solution. These spore solutions were prepared by harvesting sporulating leaf material at 14 days post infection (dpi) and adding water for rehydration of the spores. Spore solutions were hold on ice for ˜1 h, before filtering through miracloth (Merck Millipore, Germany) to remove dirt. Spores were counted and the solutions diluted to 22.2×10^4 conidiospores/ml. Albugo sp. spore solutions were sprayed uniformly on A. thaliana leaves (4.5 ml per six plants) using an airbrush gun. During spraying, plants were placed in a plastic bag and afterwards transferred into a cold room to incubate at 4° C. in darkness (˜16 h). The next morning, plants were transferred into plant growth cabinets, but left in clear bags to keep humidity high, which supports Albugo sp. infections. ˜24 h later plants were unbagged and further incubated under normal plant growth conditions.
Afterwards, the plants were kept in the lab for ˜1 h to let the leaves equilibrate again. The infiltrated plants were infected with Albugo sp., following the above-mentioned protocol. At 7 dpi, infiltrated leaves were phenotypically scored and harvested. The samples were frozen in liquid nitrogen and stored at −80° C. until DNA extraction for growth quantification via qPCR. For experiment 4, A. candida spore solutions were prepared as before and mixed with 10 mM stock solution of the test compound (100 μM end conc.). The mixture of spore solution and test compound was sprayed and incubated as for experiment 2 and 3.
• Fungicidal activity against other oomycetes was tested using isolates of the obligate biotrophic pathogen genus Albugo on Arabidopsis thaliana. The test compounds, 100 μM in 1% DMSO, were syringe infiltrated into adult A. thaliana and subsequently sprayed with aqueous spore solutions of Albugo laibachii or A. candida. In primary screenings, disease severity was visually screened and scored at nine days post infection (dpi) (Table 2+3).

[1] = system: Pseudomonas syringae pv. tomato (Pto) DC3000; experiment: Bacterial liquid culture growth curves (OD600), Pto DC3000; settings: 18.5 h, read-out: Absolute growth rate relative to mock control, Pto DC3000
Rhodococcus sp. = experiment: Bacterial liquid culture growth curves (OD600), Rhodococcus sp.; settings: 18.5 h, read-out: Absolute growth rate relative to mock control, Rhodococcus sp.
Phytophthora infestans = experiment: whole plant or invertebrate; format: in vivo; settings: in Solanum tuberosum, 120 h, read-out: P. infestans % inhibition
P. infestans = experiment: whole plant or invertebrate; format: in vivo; settings: Phytophthora infestans, in Solanum tuberosum, read-out: P. infestans % inhibition

| Compound | inhibition at 100 µM (Albugo laibachii) [%] | activity at 100 µM [1] [%] | activity at 100 µM (Rhodococcus sp.) [%] | inhibition at 100 µM (Phytophthora infestans) [%] | inhibition at 100 µM (P. infestans) [%] |
| --- | --- | --- | --- | --- | --- |
| FC(F)(F)c1cccc(-c2cc(-c3ccc4c(c3)OCO4)n[nH]2)c1 [Compound 11, 3-(1,3-Benzodioxol-5-yl)-5-[3-(trifluoromethyl)phenyl]-1H-pyrazole] | 5 to 30 | 81 | 110 |  |  |
| COc1ccc(-c2c[nH]c(-c3ccc(OC)c(OC)c3)n2)cc1OC [Compound 30, 2,4-Bis(3,4-dimethoxyphenyl)-1H-imidazole] |  | 109 | 35 | 46 |  |
| COc1ccc(-c2cc(-c3ccc(O)cc3)[nH]n2)cc1OC [Compound 32, 3-(3,4-Dimethoxyphenyl)-5-(4-hydroxyphenyl)-1H-pyrazole] |  | 90 | 10 | 77 |  |
| CN(C)c1ccc(-c2cc(-c3cccc(Br)c3)[nH]n2)cc1 [Compound 13, 5-(3-Bromophenyl)-3-[4-(dimethylamino)phenyl]-1H-pyrazole] | > 70 |  |  |  |  |
| Fc1cccc(-c2cc(-c3ccc4c(c3)OCO4)n[nH]2)c1 [Compound 7, 3-(1,3-Benzodioxol-5-yl)-5-(3-fluorophenyl)-1H-pyrazole] | 30 to 70 | 98 | 14 |  |  |
| Oc1ccc(-c2cc(-c3cccc(F)c3)[nH]n2)cc1O [Compound 16, 3-(3,4-Dihydroxyphenyl)-5-(3-fluorophenyl)-1H-pyrazole] | 30 to 70 | 66 | 0 |  |  |
| c1ccc(-c2cc(-c3ccc4c(c3)OCO4)no2)cc1 [Compound 17, 3-(1,3-Benzodioxol-5-yl)-5-phenylisoxazole] |  |  |  | 13 |  |
| COc1ccc(-c2cc(-c3cccc(Br)c3)[nH]n2)cc1OC [Compound 29, 5-(3-Bromophenyl)-3-(3,4-dimethoxyphenyl)-1H-pyrazole] | 30 to 70 | 88 | 62 |  |  |
| Clc1cccc(-c2cc(-c3ccc4c(c3)OCO4)n[nH]2)c1 [Compound 35, 3-(1,3-Benzodioxol-5-yl)-5-(3-chlorophenyl)-1H-pyrazole] | 30 to 70 | 85 | 11 |  |  |
| Nc1ccc(-c2cc(-c3cccc(Br)c3)[nH]n2)cc1 [Compound 40, 3-(4-Aminophenyl)-5-(3-bromophenyl)-1H-pyrazole] | > 70 | 91 | -1 |  |  |
| Nc1ccc(-c2cc(-c3cccc(Cl)c3)[nH]n2)cc1 [Compound 39, 3-(4-Aminophenyl)-5-(3-chlorophenyl)-1H-pyrazole] | 30 to 70 | 94 | -1 |  |  |
| COc1ccc(-c2cc(-c3cccc(O)c3)[nH]n2)cc1OC [Compound 33, 3-(3,4-Dimethoxyphenyl)-5-(3-hydroxyphenyl)-1H-pyrazole] |  | 90 | 6 | 85 | 84 |
| COc1ccc(-c2cc(-c3cccc(F)c3)on2)cc1OC [Compound 20, 3-(3,4-Dimethoxyphenyl)-5-(3-fluorophenyl)isoxazole] |  |  |  | 21 |  |
| COc1ccc(-c2cc(-c3ccc(Cl)cc3)n[nH]2)cc1 [Compound 31, 3-(4-Chlorophenyl)-5-(4-methoxyphenyl)-1H-pyrazole] |  |  |  | 77 |  |
| Fc1cc(F)cc(-c2cc(-c3ccc4c(c3)OCO4)n[nH]2)c1 [Compound 104, 3-(1,3-Benzodioxol-5-yl)-5-(3,5-difluorophenyl)-1H-pyrazole] |  | 101 | 51 |  |  |
| Oc1ccc(-c2cc(-c3cccc(C(F)(F)F)c3)[nH]n2)cc1O [Compound 12, 3-(3,4-Dihydroxyphenyl)-5-[3-(trifluoromethyl)phenyl]-1H-pyrazole] |  | 104 | -1 | 76 |  |
| CNc1ccc(-c2cc(-c3cccc(Br)c3)[nH]n2)cc1 [Compound 42, 5-(3-Bromophenyl)-3-[4-(methylamino)phenyl]-1H-pyrazole] |  | 73 | 72 |  |  |

| Compound | inhibition at 100 µM (Albugo laibachii) [%] | activity at 100 µM [1] [%] | activity at 100 µM (Rhodococcus sp.) [%] | inhibition at 100 µM (Phytophthora infestans) [%] | inhibition at 100 µM (P. infestans) [%] |
| --- | --- | --- | --- | --- | --- |
| Oc1ccc(-c2cc(-c3cccc(F)c3)on2)cc1O [Compound 21, 3-(3,4-Dihydroxyphenyl)-5-(3-fluorophenyl)isoxazole] |  | 93 | 2 | 70 |  |
| CN(C)c1cccc(-c2cc(-c3ccc4c(c3)OCO4)n[nH]2)c1 [Compound 14, 3-[3-(1,3-benzodioxol-5-yl)-1H-pyrazol-5-yl]-N,N-dimethylaniline] |  | 100 | 11 | 71 |  |
| Oc1ccc(-c2cc(-c3ccc(O)c(O)c3)[nH]n2)cc1O [Compound 27, 3,5-Bis(3,4-Dihydroxyphenyl)-1H-pyrazole hydrobromide] |  | 77 | 98 | 62 |  |
| Clc1ccc(-c2cc(-c3cccc(N4CCOCC4)c3)[nH]n2)cc1 [Compound 3, 4-{3-[3-(4-Chlorophenyl)-1H-pyrazol-5-yl]phenyl}morpholine] |  |  |  |  | 20 |
| COc1cccc(-c2nc(-c3ccc(F)cc3)no2)c1 [Compound 51, 3-(4-Fluorophenyl)-5-(3-methoxyphenyl)-1,2,4-oxadiazole] |  |  |  |  | 8 |
| Oc1ccc(-c2noc(-c3cccc(F)c3)n2)cc1O [Compound 25, 3-(3,4-Dihydroxyphenyl)-5-(3-fluorophenyl)-1,2,4-oxadiazole] |  | 105 | 1 | 79 |  |
| Oc1cccc(-c2cnc(-c3cccc(Br)c3)[nH]2)c1 [Compound 87, 2-(3-Bromophenyl)-5-(3-hydroxyphenyl)-1H-imidazole] |  |  |  |  | 99 |
| COCCOC(=O)Nc1cccc(-c2nc(-c3ccc(OC(F)(F)F)cc3)c[nH]2)c1 [Compound 137, 2-Methoxyethyl (3-{4-[4-(trifluoromethoxy)phenyl]-1H-imidazol-2-yl}phenyl) carbamate] |  |  |  |  | 77 |
| CN1CCN(c2ccc(-c3cc(-c4cc(F)ccc4F)[nH]n3)cc2)CC1 [Compound 149, 1-{4-[5-(2,5-Difluorophenyl)-1H-pyrazol-3-yl]phenyl}-4-methylpiperazine] |  |  |  |  | 8 |
| O=C(O)c1ccc(-c2cc(-c3ccc(F)cc3)[nH]n2)cc1 [Compound 142, 4-[5-(4-Fluorophenyl)-1H-pyrazol-3-yl]benzoic acid] |  |  |  |  | 46 |
| Cc1ccc(-c2n[nH]c(-c3cccc(NC(=O)[C@@H](N)CC(C)C)c3)n2)cc1 [Compound 159, (2S)-2-Amino-N-{3-[3-(4-methylphenyl)-1H-1,2,4-triazol-5-yl]phenyl}-4-methylpentanamide] |  |  |  |  | 97 |
| CCc1ccc(-c2c[nH]c(-c3ccc(NS(C)(=O)=O)cc3)n2)cc1 [Compound 152] |  |  |  |  | 91 |
| NCCCC[C@H](N)C(=O)Nc1ccc(-c2nc(-c3ccc(OC(F)(F)F)cc3)n[nH]2)cc1 [Compound 58, (2S)-2,6-Diamino-N-(4-{3-[4-(trifluoromethoxy)phenyl]-1H-1,2,4-triazol-5-yl}phenyl)hexanamide dihydrochloride] |  |  |  |  | 89 |
| CC(C)[C@H](N)C(=O)Nc1ccc(-c2cc(-c3cccc(F)c3)on2)cc1 [Compound 93, (2S)-2-Amino-N-{4-[5-(3-fluorophenyl)-1,2-oxazol-3-yl]phenyl}-3-methylbutanamide hydrochloride] |  |  |  |  | 95 |
| Cc1ccc(-c2n[nH]c(-c3cccc(NC(=O)OC(C)C)c3)n2)cc1 [Compound 157, Propan-2-yl {3-[3-(4-methylphenyl)-1H-1,2,4-triazol-5-yl]phenyl}carbamate] |  |  |  |  | 17 |
| Ic1ccc(-c2cc(-c3ccc4c(c3)OCO4)n[nH]2)cc1 [Compound 15, 3-(1,3-Benzodioxol-5-yl)-5-(4-iodophenyl)-1H-pyrazole] |  |  |  | 56 |  |
| Oc1ccc(-c2c[nH]c(-c3ccc(Br)cc3)n2)cc1 [Compound 118, 2-(4-Bromophenyl)-5-(4-hydroxyphenyl)-1H-imidazole] |  |  |  |  | 83 |
